The source of these data is publication PMC7179128, “Characterizations and Assays of α-Glucosidase Inhibition Activity on Gallic Acid Cocrystals: Can the Cocrystals be Defined as a New Chemical Entity During Binding with the α-Glucosidase?” (Molecules, 2020).

Usually AUC(0-inf) stands for the area under the concentration-time curve extrapolated to infinity. What is called AUC(0-t) is exposure summed from dosing to a finite time, without extrapolation to infinity. By Cmax is commonly meant the peak of the concentration-time curve.

The target of one data set is α-glucosidase (Saccharomyces cerevisiae, UniProt P53341). The data set is described as follows: α-glucosidase inhibitory activity in vitro (pNPG substrate, absorbance at 405 nm). The format is biochemical. The note with it: in vitro inhibition rate, Figure 4.
Sequence of α-glucosidase (P53341 whole entry): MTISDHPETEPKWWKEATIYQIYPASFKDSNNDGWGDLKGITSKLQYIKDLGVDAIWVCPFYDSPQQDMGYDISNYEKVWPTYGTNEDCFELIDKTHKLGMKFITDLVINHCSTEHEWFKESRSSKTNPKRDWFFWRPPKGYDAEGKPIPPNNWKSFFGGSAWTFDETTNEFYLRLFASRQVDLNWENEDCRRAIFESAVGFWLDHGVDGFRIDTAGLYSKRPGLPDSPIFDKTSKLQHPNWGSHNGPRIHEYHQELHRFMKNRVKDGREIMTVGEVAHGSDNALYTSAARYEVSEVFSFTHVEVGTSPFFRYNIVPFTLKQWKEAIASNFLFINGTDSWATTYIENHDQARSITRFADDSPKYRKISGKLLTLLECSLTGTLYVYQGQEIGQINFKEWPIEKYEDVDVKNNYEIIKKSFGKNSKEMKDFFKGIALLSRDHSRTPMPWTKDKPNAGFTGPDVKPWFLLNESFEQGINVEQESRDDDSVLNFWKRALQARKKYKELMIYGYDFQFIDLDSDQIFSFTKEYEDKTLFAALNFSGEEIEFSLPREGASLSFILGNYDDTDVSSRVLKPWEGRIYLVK
The nature of data set [1]: Powder dissolution test in 0.1 mol∙L^−1 HCl. The format is physicochemical. The note with it: after 25 min, 37 ± 0.5 °C. As to the method: Co., Ltd., Shanghai, China) at 25 °C in five different solutions (pH 1, 2, 4, 8 and water, respectively) using the shake-flask method. Excess sample was added in the solvent and the suspension was shaken for 72 h in an air bath. The suspension was filtered through a 0.45 μm Millipore filter. Then, the GA concentration was determined using HPLC (Agilent 1200, Santa Clara, CA, USA). […] Approximately 50 mg of the sample (here single GA and cocrystals equivalent to 50 mg of GA) were placed in 900 mL dissolution media. Four milliliters of the suspensions were taken at appropriate intervals and immediately replaced by 4 mL of fresh dissolution media. All samples were filtered through a 0.45 μm Millipore filter. The concentration of GA in all samples were determined by HPLC. All tests were repeated thrice. Bioavailability in vivo was assayed using SD rats. […] The intragastric suspensions were prepared by suspending GA or the cocrystal (equivalent to same amount of GA) in 5% sodium carboxymethyl cellulose. Thereafter, the intragastric suspensions were orally administered to the rats at a single dose of 50 mg∙kg^-1. An approximately 500 μL blood sample was obtained from the eye canthus and collected into 1.5 mL heparinized plastic centrifuge tubes at the set time point after intragastric administration. […] The pharmacokinetic parameters were calculated using DAS 2.0 software.

Data set [2] can be described thus: Oral bioavailability / pharmacokinetics in SD rats. The format is in vivo. The note with it: rat, single dose 50 mg∙kg^−1 (GA equivalent), n = 6, GA in plasma. As to the method: Co., Ltd., Shanghai, China) at 25 °C in five different solutions (pH 1, 2, 4, 8 and water, respectively) using the shake-flask method. Excess sample was added in the solvent and the suspension was shaken for 72 h in an air bath. The suspension was filtered through a 0.45 μm Millipore filter. Then, the GA concentration was determined using HPLC (Agilent 1200, Santa Clara, CA, USA). […] Approximately 50 mg of the sample (here single GA and cocrystals equivalent to 50 mg of GA) were placed in 900 mL dissolution media. Four milliliters of the suspensions were taken at appropriate intervals and immediately replaced by 4 mL of fresh dissolution media. All samples were filtered through a 0.45 μm Millipore filter. The concentration of GA in all samples were determined by HPLC. All tests were repeated thrice. Bioavailability in vivo was assayed using SD rats. […] The intragastric suspensions were prepared by suspending GA or the cocrystal (equivalent to same amount of GA) in 5% sodium carboxymethyl cellulose. Thereafter, the intragastric suspensions were orally administered to the rats at a single dose of 50 mg∙kg^-1. An approximately 500 μL blood sample was obtained from the eye canthus and collected into 1.5 mL heparinized plastic centrifuge tubes at the set time point after intragastric administration. GA was extracted from plasma by protein precipitation. One hundred microliters of plasma was mixed with internal standard solution (20 μL) in the centrifuge tube; then, the solution of acetonitrile formic acid (2%, v/v) was added to precipitate the protein. […] Then, the supernatant was taken for determining the concentration of GA by the LC-MS/MS (MS:3200 QTRAP, AB SCIEX, MA, USA, LC: Agilent1200, Santa Clara, CA, USA) method. The blood concentration-time curve was drawn by taking blood sampling time as the horizontal coordinate and GA concentration as the vertical coordinate. The pharmacokinetic parameters were calculated using DAS 2.0 software.

Procedure for α-glucosidase: Briefly, accurately weighed α-glucosidase was dissolved in 0.1 mol∙L^−1 potassium phosphate buffer (pH 6.8) to produce 50 μL of enzyme solution with a concentration of 1.0 U∙mL^−1. Fifty microliters of enzyme solution and 50 μL of test sample were mixed in a well of a microtiter plate to incubate for 10 min at 37 °C. Three millimoles of pNPG in the same buffer was used as a substrate solution. After pre-incubation at 37 °C for 10 min, 50 μL of pNPG solution was added into above enzyme solution. The enzymatic reaction was allowed to proceed at 37 °C for 10 min, following the measurement of 4-nitrophenol absorbance at 405 nm on a microplate spectrophotometer. The solution without α-glucosidase was used as a blank. The solution without the test sample was used as a test. The solution without the test sample and α-glucosidase was used as a control.
IC50 values were obtained as the mean of three independent experiments, which were constructed by testing a series of concentrations (i.e., three curves were obtained, each in triplicate).

Regarding `O=C1CCC(=O)N1` [succinimide], on α-glucosidase, the “α-glucosidase inhibitory activity (in words)” value is on record as “no inhibitory activity”.
On to `O=C(O)c1cc(O)c(O)c(O)c1` [GA, gallic acid], for which the cumulative dissolution in data set [1] was 80%. Also, in data set [2], the total exposure AUC(0-inf) turned out to be 4200 ± 1200 ng·h/mL, the area under the curve AUC(0-t) stood at 4100 ± 1200 ng·h/mL and the Cmax stood at 1500 ± 500 ng/mL.
